The values below come from US20240252488A1 (KOREA RESEARCH INSTITUTE OF CHEMICAL TECHNOLOGY, priority 2020, published 2024).

The subject of one assay is FADD−/− Jurkat cells. The assay is described as follows: Necroptosis inhibition assay, TNF-α-induced necroptosis (CellTiter-Glo 2.0). In kind it is cell-based, human. To be noted: TNF-α 15 ng/mL; for Necroptosis inhibition assay (Rescue %) 1 μM: compound 1 μM; for Necroptosis inhibition assay (Rescue %) 10 μM: compound 10 μM. Put shortly: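 Compound is added to cells at final concentrations of 0.1, 1 and 10 μM and left 30 minutes at room temperature. Necroptosis is induced with 15 ng/mL TNF-α, culture continues 20 to 24 hours at 37° C, and ATP-based luminescence reports viability.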

In assay [1] the target is T1, MLKL (Homo sapiens, UniProt Q8NB16).
T1 sequence (Q8NB16 1-471): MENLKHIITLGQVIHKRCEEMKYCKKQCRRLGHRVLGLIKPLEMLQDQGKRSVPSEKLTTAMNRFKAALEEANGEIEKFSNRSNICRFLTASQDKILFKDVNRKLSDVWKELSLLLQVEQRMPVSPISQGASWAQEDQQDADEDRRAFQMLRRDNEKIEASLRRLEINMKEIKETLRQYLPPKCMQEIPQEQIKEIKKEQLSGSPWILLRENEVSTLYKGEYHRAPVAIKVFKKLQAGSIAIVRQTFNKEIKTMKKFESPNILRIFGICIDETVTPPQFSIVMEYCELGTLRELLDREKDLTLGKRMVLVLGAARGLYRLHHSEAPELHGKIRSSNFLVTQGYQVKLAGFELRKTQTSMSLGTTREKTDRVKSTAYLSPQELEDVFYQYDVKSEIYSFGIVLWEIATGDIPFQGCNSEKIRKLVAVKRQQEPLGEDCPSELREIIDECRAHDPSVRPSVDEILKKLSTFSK
The assay is described as follows: MLKL degradation assay in HepG2 cell line (western blot). It is filed as cell-based. Details: endogenous in cells; host or cells: HepG2 or HaCaT. Conditions: cell line not given; for Degradation assay (Degradation %) 1 μM: compound 1 μM; for Degradation assay (Degradation %) 10 μM: compound 10 μM. Put shortly:
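Chemiluminescent western blot signal reports remaining MLKL protein in HepG2 cells after 20-24 h treatment with compound at a final 1 or 10 μM. Equal protein (10-15 μg, BCA) is loaded per lane.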

Assay [2] concerns the target T1, MLKL. The assay is described as follows: Measurement of binding affinity with MLKL receptor (competitive binding assay, Kd). Details: made in house; host or cells: HEK 293 cell line (T7 phage in E. coli BL21-derived host is also described). Put shortly:
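Kd comes from a bead-based competition format: compound-dependent loss of DNA-tagged, HEK 293-expressed MLKL capture, measured as eluate kinase by qPCR. Final DMSO is 0.9%.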

pKd: −log10 of the molar value.

With `COc1ccc(C(=O)N2CCC(C(=O)N3CCC(OCCN4CCC(CN5CCC(n6cc(-c7cnc(N)c(C(=O)O[C@@H](C(=O)Nc8ccc(F)cc8)c8ccccc8)n7)cn6)CC5)CC4)CC3)CC2)cc1N1CCC(=O)NC1=O` [TDH-512, (R)-2-((4-fluorophenyl)amino)-2-oxo-1-phenylethyl 3-amino-6-(1-(1-((1-(2-((1-(1-(3-(2,4-dioxotetrahydropyrimidin-1(2H)-yl)-4-methoxybenzoyl)piperidine-4-carbonyl)piperidin-4-yl)oxy)ethyl)piperidin-4-yl)methyl)piperidin-4-yl)-1H-pyrazol-4-yl)pyrazine-2-carboxylate], in the assay with FADD−/− Jurkat cells (FADD−/− Jurkat cells), the “Necroptosis inhibition assay (Rescue %) 1 μM” value is listed as 24.43% and the “Necroptosis inhibition assay (Rescue %) 10 μM” value is 52.33%. Besides, on MLKL [1], the “Degradation assay (Degradation %) 1 μM” value is listed as 51.41% and the “Degradation assay (Degradation %) 10 μM” value worked out at 80.48%. At MLKL [2], this compound gave a pKd of 9.13.
`Nc1ncc(-c2ccc(N3CCN(CC4CCN(C(=O)COc5ccc6c(c5)C(=O)N(C5CCC(=O)NC5=O)C6=O)CC4)CC3)nc2)nc1C(=O)OC(C(=O)Nc1ccc(F)cc1)c1ccccc1` (stereo not drawn) [TDH-256, 2-((4-fluorophenyl)amino)-2-oxo-1-phenylethyl 3-amino-6-(6-(4-((1-(2-((2-(2,6-dioxopiperidin-3-yl)-1,3-dioxoisoindolin-5-yl)oxy)acetyl)piperidin-4-yl)methyl)piperazin-1-yl)pyridin-3-yl)pyrazine-2-carboxylate]: in the assay with FADD−/− Jurkat cells, the “Necroptosis inhibition assay (Rescue %) 1 μM” value is on record as 45.87% and the “Necroptosis inhibition assay (Rescue %) 10 μM” value is on record as 44.55%. Moreover, at MLKL [1], the “Degradation assay (Degradation %) 1 μM” value is 36.84% and the “Degradation assay (Degradation %) 10 μM” value is given as 24.99%. For the same compound, the pKd on MLKL [2] was 7.11.
For the compound `Nc1ncc(-c2cnn(C3CCN(CCC4CCN(C(=O)CCc5ccc6c(c5)C(=O)N(C5CCC(=O)NC5=O)C6=O)CC4)CC3)c2)nc1C(=O)O[C@@H](C(=O)Nc1ccc(F)cc1)c1ccccc1` (stereo partly drawn) [TDH-377, (R)-2-((4-fluorophenyl)amino)-2-oxo-1-phenylethyl 3-amino-6-(1-(1-(2-(1-(3-(2-(2,6-dioxopiperidin-3-yl)-1,3-dioxoisoindolin-5-yl)propanoyl)piperidin-4-yl)ethyl)piperidin-4-yl)-1H-pyrazol-4-yl)pyrazine-2-carboxylate], in the assay with FADD−/− Jurkat cells, the “Necroptosis inhibition assay (Rescue %) 1 μM” value is given as 62.50% and the “Necroptosis inhibition assay (Rescue %) 10 μM” value was found to be 27.37%. In addition, on MLKL [1], the “Degradation assay (Degradation %) 1 μM” value worked out at 89.95% and the “Degradation assay (Degradation %) 10 μM” value is on record as 82.82%. On MLKL [2], the pKd is 9.21.
In the case of `Nc1ncc(-c2cnn(C3CCN(C(=O)C4CCN(C(=O)CNc5ccc6c(c5)C(=O)N(C5CCC(=O)NC5=O)C6=O)CC4)CC3)c2)nc1C(=O)O[C@@H](C(=O)Nc1ccc(F)cc1)c1ccccc1` (stereo partly drawn) [TDH-353, (R)-2-((4-fluorophenyl)amino)-2-oxo-1-phenylethyl 3-amino-6-(1-(1-(1-((2-(2,6-dioxopiperidin-3-yl)-1,3-dioxoisoindolin-5-yl)glycyl)piperidine-4-carbonyl)piperidin-4-yl)-1H-pyrazol-4-yl)pyrazine-2-carboxylate], the “Necroptosis inhibition assay (Rescue %) 1.1 μM” value in the assay with FADD−/− Jurkat cells (compound 1.1 µM) was 55.34 (1.1µM) %. Besides, the “Necroptosis inhibition assay (Rescue %) 10 μM” value with FADD−/− Jurkat cells was found to be 49.23%. Also, on MLKL [1], the “Degradation assay (Degradation %) 1 μM” value is given as 75.35% and the “Degradation assay (Degradation %) 10 μM” value came to 86.12%. At MLKL [2], this compound gave a pKd of 7.59.
Take `Nc1ncc(-c2cnn(C3CCN(CCCN4CCN(CC5CCN(c6ccc7c(c6)C(=O)N(C6CCC(=O)NC6=O)C7=O)CC5)CC4)CC3)c2)nc1C(=O)O[C@@H](C(=O)Nc1ccc(F)cc1)c1ccccc1` (stereo partly drawn) [TDH-474, (R)-2-((4-fluorophenyl)amino)-2-oxo-1-phenylethyl 3-amino-6-(1-(1-(3-(4-((1-(2-(2,6-dioxopiperidin-3-yl)-1,3-dioxoisoindolin-5-yl)piperidin-4-yl)methyl)piperazin-1-yl)propyl)piperidin-4-yl)-1H-pyrazol-4-yl)pyrazine-2-carboxylate]: in the assay on FADD−/− Jurkat cells (FADD−/− Jurkat cells), the “Necroptosis inhibition assay (Rescue %) 1 μM” value stood at 25.61% and the “Necroptosis inhibition assay (Rescue %) 10 μM” value is 5.98%. Moreover, on MLKL [1], the “Degradation assay (Degradation %) 1 μM” value stood at 54.33% and the “Degradation assay (Degradation %) 10 μM” value came out at 68.31%. This compound also showed a pKd at MLKL [2] of 9.02.
For the compound `Nc1ncc(-c2cnn(C3CCN(CCCCCCNC(=O)CNc4cccc5c4C(=O)N(C4CCC(=O)NC4=O)C5=O)CC3)c2)nc1C(=O)O[C@@H](C(=O)Nc1ccc(F)cc1)c1ccccc1` (stereo partly drawn) [TDH-101, (R)-2-((4-fluorophenyl)amino)-2-oxo-1-phenylethyl 3-amino-6-(1-(1-(6-(2-((2-(2,6-dioxopiperidin-3-yl)-1,3-dioxoisoindolin-4-yl)amino)acetamido)hexyl)piperidin-4-yl)-1H-pyrazol-4-yl)pyrazine-2-carboxylate], in the assay on FADD−/− Jurkat cells, the “Necroptosis inhibition assay (Rescue %) 1 μM” value is given as 50.77% and the “Necroptosis inhibition assay (Rescue %) 10 μM” value is given as 18.45%. Further, at MLKL [1], the “Degradation assay (Degradation %) 1 μM” value turned out to be 35.85% and the “Degradation assay (Degradation %) 10 μM” value is given as 29.42%. This compound also showed a negative logarithm of the Kd (pKd) on MLKL [2] of 8.72.
On the same counts, the results for `Nc1ncc(-c2cnn([C@H]3CCN(CC4CCN(C(=O)COc5cccc6c5C(=O)N(C5CCC(=O)NC5=O)C6=O)CC4)C3)c2)nc1C(=O)OC(C(=O)Nc1ccc(F)cc1)c1ccccc1` (stereo partly drawn) [TDH-283, 2-((4-fluorophenyl)amino)-2-oxo-1-phenylethyl 3-amino-6-(1-((3S)-1-((1-(2-((2-(2,6-dioxopiperidin-3-yl)-1,3-dioxoisoindolin-4-yl)oxy)acetyl)piperidin-4-yl)methyl)pyrrolidin-3-yl)-1H-pyrazol-4-yl)pyrazine-2-carboxylate] are 44.29%, 54.92%, 4.29%, 31.1% and 8.68.
Consider `Nc1ncc(-c2cnn(C3CCN(C(=O)CCC4CCN(C(=O)CCc5ccc6c(c5)C(=O)N(C5CCC(=O)NC5=O)C6=O)CC4)CC3)c2)nc1C(=O)O[C@@H](C(=O)Nc1ccc(F)cc1)c1ccccc1` (stereo partly drawn) [TDH-432, (R)-2-((4-fluorophenyl)amino)-2-oxo-1-phenylethyl 3-amino-6-(1-(1-(3-(1-(3-(2-(2,6-dioxopiperidin-3-yl)-1,3-dioxoisoindolin-5-yl)propanoyl)piperidin-4-yl)propanoyl)piperidin-4-yl)-1H-pyrazol-4-yl)pyrazine-2-carboxylate], for which, in the assay with FADD−/− Jurkat cells (FADD−/− Jurkat cells), the “Necroptosis inhibition assay (Rescue %) 1 μM” value was determined as 12.47% and the “Necroptosis inhibition assay (Rescue %) 10 μM” value worked out at 0.07%. For the same compound, on MLKL [1], the “Degradation assay (Degradation %) 1 μM” value amounted to 89.17% and the “Degradation assay (Degradation %) 10 μM” value was 73.05%. The pKd on MLKL [2] is 9.05.
As to `Nc1ncc(-c2cnn(C3CCN(CCCCCCCCCCNC(=O)C4CCN(c5cccc6c5C(=O)N(C5CCC(=O)NC5=O)C6=O)CC4)CC3)c2)nc1C(=O)O[C@@H](C(=O)Nc1ccc(F)cc1)c1ccccc1` (stereo partly drawn) [TDH-156, (R)-2-((4-fluorophenyl)amino)-2-oxo-1-phenylethyl 3-amino-6-(1-(1-(10-(1-(2-(2,6-dioxopiperidin-3-yl)-1,3-dioxoisoindolin-4-yl)piperidine-4-carboxamido)decyl)piperidin-4-yl)-1H-pyrazol-4-yl)pyrazine-2-carboxylate], in the assay on FADD−/− Jurkat cells, the “Necroptosis inhibition assay (Rescue %) 1 μM” value is listed as 19.9% and the “Necroptosis inhibition assay (Rescue %) 10 μM” value turned out to be 21.77%. Besides, at MLKL [1], the “Degradation assay (Degradation %) 1 μM” value is recorded as 31.35% and the “Degradation assay (Degradation %) 10 μM” value came to 18.75%. For the same compound, the pKd at MLKL [2] was 7.28.
